# Source: patent publication US20230271949A1, “GLP-1R MODULATING COMPOUNDS” (ASCLETIS BIOSCIENCE CO., LTD., priority 2022, published 2023)
# pEC50: −log10 of the molar value.
# Molecular target: GLP-1R (Homo sapiens, UniProt P43220)
# Test: GLP-1R agonist cAMP stimulation assay (HTRF cAMP)
# Type: cell-based
# Conditions: HEK293 cell line expressing GLP-1 target; HTRF cAMP agonist mode, 30 min at RT
# In short: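 GLP-1R-expressing cells were stimulated with 10-point, 3-fold compound dilutions for 30 min at RT; HTRF cAMP detection reagents were then added for 60 min and the 665/615 ratio read. Ratios were converted to cAMP via a standard curve and % activity scaled between DMSO and top-concentration GLP-1(7-37) reference wells.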
# GLP-1R, sequence (P43220 24-463): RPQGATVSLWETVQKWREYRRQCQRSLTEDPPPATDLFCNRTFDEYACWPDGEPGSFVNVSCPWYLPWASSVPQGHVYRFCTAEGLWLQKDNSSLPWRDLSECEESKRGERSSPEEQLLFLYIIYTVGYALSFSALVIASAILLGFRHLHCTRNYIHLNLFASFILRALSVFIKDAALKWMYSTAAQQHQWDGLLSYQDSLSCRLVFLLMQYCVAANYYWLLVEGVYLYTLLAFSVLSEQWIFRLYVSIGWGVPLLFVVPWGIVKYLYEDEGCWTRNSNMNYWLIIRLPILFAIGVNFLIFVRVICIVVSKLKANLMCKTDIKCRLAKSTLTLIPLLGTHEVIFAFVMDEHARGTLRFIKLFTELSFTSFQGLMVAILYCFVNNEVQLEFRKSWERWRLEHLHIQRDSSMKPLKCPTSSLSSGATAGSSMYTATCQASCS
row,pEC50,SMILES
1,8.26,Cc1n[nH]c2cc(F)c(NC(=O)c3ccc4c(c3)nc(CN3CCC(c5cccc(OCc6ccc(Cl)cc6F)n5)CC3)n4C[C@@H]3CCO3)cc12 [Compound 123]
2,9.77,Cc1cc(NC(=O)c2ccc3c(c2)nc(CN2CCC(c4cccc(OCc5ccc(C#N)cc5F)n4)CC2)n3C[C@@H]2CCO2)cc2c1NC(=O)C21CC1 [Compound 124]
3,9.26,N#Cc1ccc(COc2cccc(C3CCN(Cc4nc5cc(C(=O)Nc6cc(F)c7c(c6)C6(CC6)C(=O)N7)ccc5n4C[C@@H]4CCO4)CC3)n2)c(F)c1 [Compound 125]
4,9.52,N#Cc1ccc(COc2cccc(C3CCN(Cc4nc5cc(C(=O)Nc6ccc7c(c6)C6(CC6)C(=O)N7)ccc5n4C[C@@H]4CCO4)CC3)n2)c(F)c1 [Compound 128]
5,8.94,N#Cc1ccc(COc2cccc(C3CCN(Cc4nc5cc(C(=O)Nc6cc(F)c7[nH]ncc7c6)ccc5n4C[C@@H]4CCO4)CC3)n2)c(F)c1 [Compound 129]
6,8.87,N#Cc1ccc(COc2cccc(C3CCN(Cc4nc5cc(C(=O)Nc6ccc7[nH]nc(C(F)(F)F)c7c6)ccc5n4C[C@@H]4CCO4)CC3)n2)c(F)c1 [Compound 130]
7,8.92,Cc1cc(NC(=O)c2ccc3c(c2)nc(CN2CCC(c4cccc(OCc5ccc(Cl)cn5)n4)CC2)n3C[C@@H]2CCO2)cc2c1NC(=O)C21CC1 [Compound 131]
8,9.13,Cc1cc(NC(=O)c2ccc3c(c2)nc(CN2CCC(c4cccc(OCc5ccc(C#N)cc5F)n4)CC2)n3C[C@@H]2CCO2)cc2c(C(F)F)n[nH]c12 [Compound 132]
9,9.42,Cc1n[nH]c2ccc(NC(=O)c3ccc4c(c3)nc(CN3CCC(c5cccc(OCc6ccc(C#N)cc6F)n5)CC3)n4C[C@@H]3CCO3)cc12 [Compound 133]
10,8.90,CCc1n[nH]c2ccc(NC(=O)c3ccc4c(c3)nc(CN3CCC(c5cccc(OCc6ccc(C#N)cc6F)n5)CC3)n4C[C@@H]3CCO3)cc12 [Compound 135]
11,8.66,Cc1n[nH]c2ccc(NC(=O)c3ccc4c(n3)nc(CN3CC=C(c5cccc(OCc6ccc(Cl)cc6F)n5)CC3)n4C[C@@H]3CCO3)cc12 [Compound 136]
12,8.26,Cc1cc(NC(=O)c2ccc3c(n2)nc(CN2CC=C(c4cccc(OCc5ccc(Cl)cc5F)n4)CC2)n3C[C@@H]2CCO2)cc2cn[nH]c12 [Compound 137]
13,8.05,COc1n[nH]c2ccc(NC(=O)c3ccc4c(c3)nc(CN3CC=C(c5cccc(OCc6ccc(Cl)cc6F)n5)CC3)n4C[C@@H]3CCO3)cc12 [Compound 138]
14,7.82,O=C(Nc1ccc2[nH]nc(F)c2c1)c1ccc2c(c1)nc(CN1CC=C(c3cccc(OCc4ccc(Cl)cc4F)n3)CC1)n2C[C@@H]1CCO1 [Compound 139]
15,8.53,CC(C)c1n[nH]c2ccc(NC(=O)c3ccc4c(c3)nc(CN3CC=C(c5cccc(OCc6ccc(Cl)cc6F)n5)CC3)n4C[C@@H]3CCO3)cc12 [Compound 140]
16,8.48,O=C(Nc1ccc2[nH]ncc2c1)c1ccc2c(c1)nc(CN1CC=C(c3cccc(OCc4ccc(Cl)cc4F)n3)CC1)n2C[C@@H]1CCO1 [Compound 141]
17,9.12,O=C(Nc1ccc2c(c1)C1(CC1)C(=O)N2)c1ccc2c(c1)nc(CN1CC=C(c3cccc(OCc4ccc(Cl)cc4F)n3)CC1)n2C[C@@H]1CCO1 [Compound 143]
18,7.63,O=C(Nc1ncc2[nH]cnc2n1)c1ccc2c(c1)nc(CN1CC=C(c3cccc(OCc4ccc(Cl)cc4F)n3)CC1)n2C[C@@H]1CCO1 [Compound 144]
19,7.62,Cn1c(=O)[nH]c2ccc(NC(=O)c3ccc4c(c3)nc(CN3CC=C(c5cccc(OCc6ccc(Cl)cc6F)n5)CC3)n4C[C@@H]3CCO3)cc21 [Compound 146]
20,7.68,O=C(Nc1ccn2nccc2c1)c1ccc2c(c1)nc(CN1CC=C(c3cccc(OCc4ccc(Cl)cc4F)n3)CC1)n2CC1CCO1 (stereo not shown) [Compound 148]
21,7.46,O=C(Nc1ccn2ncc(Cl)c2c1)c1ccc2c(c1)nc(CN1CC=C(c3cccc(OCc4ccc(Cl)cc4F)n3)CC1)n2CC1CCO1 (stereo not shown) [Compound 149]
22,8.24,O=C(Nc1ccc2ncsc2c1)c1ccc2c(c1)nc(CN1CC=C(c3cccc(OCc4ccc(Cl)cc4F)n3)CC1)n2C[C@@H]1CCO1 [Compound 150]
23,9.19,O=C(Nc1cc(F)c2[nH]ncc2c1)c1ccc2c(c1)nc(CN1CC=C(c3cccc(OCc4ccc(Cl)cc4F)n3)CC1)n2C[C@@H]1CCO1 [Compound 152]
24,9.26,Cc1cc(NC(=O)c2ccc3c(c2)nc(CN2CC=C(c4cccc(OCc5ccc(Cl)cc5F)n4)CC2)n3C[C@@H]2CCO2)cc2c1NC(=O)C21CC1 [Compound 155]
25,9.17,Cc1n[nH]c2c(C(F)(F)F)cc(NC(=O)c3ccc4c(c3)nc(CN3CC=C(c5cccc(OCc6ccc(Cl)cc6F)n5)CC3)n4C[C@@H]3CCO3)cc12 [Compound 156]
26,9.11,O=C(Nc1cc(C(F)(F)F)c2c(c1)C1(CC1)C(=O)N2)c1ccc2c(c1)nc(CN1CC=C(c3cccc(OCc4ccc(Cl)cc4F)n3)CC1)n2C[C@@H]1CCO1 [Compound 157]

row,pEC50,SMILES
1,8.99,O=C(Nc1cc(C(F)(F)F)c2[nH]ncc2c1)c1ccc2c(c1)nc(CN1CC=C(c3cccc(OCc4ccc(Cl)cc4F)n3)CC1)n2C[C@@H]1CCO1 [Compound 158]
2,8.01,Cc1nn(C)c2ccc(NC(=O)c3ccc4c(c3)nc(CN3CC=C(c5cccc(OCc6ccc(Cl)cc6F)n5)CC3)n4C[C@@H]3CCO3)cc12 [Compound 159]
3,9.01,Cc1n[nH]c2c(Cl)cc(NC(=O)c3ccc4c(c3)nc(CN3CC=C(c5cccc(OCc6ccc(Cl)cc6F)n5)CC3)n4C[C@@H]3CCO3)cc12 [Compound 160]
4,9.06,O=C(Nc1ccc2[nH]nc(C(F)(F)F)c2c1)c1ccc2c(c1)nc(CN1CC=C(c3cccc(OCc4ccc(Cl)cc4F)n3)CC1)n2C[C@@H]1CCO1 [Compound 161]
5,8.91,O=C(Nc1ccc2[nH]nc(C3CC3)c2c1)c1ccc2c(c1)nc(CN1CC=C(c3cccc(OCc4ccc(Cl)cc4F)n3)CC1)n2C[C@@H]1CCO1 [Compound 162]
6,9.00,O=C(Nc1cc(C(F)(F)F)c2[nH]nc(C3CC3)c2c1)c1ccc2c(c1)nc(CN1CC=C(c3cccc(OCc4ccc(Cl)cc4F)n3)CC1)n2C[C@@H]1CCO1 [Compound 163]
7,8.77,Cc1cc(NC(=O)c2ccc3c(c2)nc(CN2CC=C(c4cccc(OCc5ccc(Cl)cc5F)n4)CC2)n3C[C@@H]2CCO2)cc2c(C3CC3)n[nH]c12 [Compound 164]
8,9.06,Cc1n[nH]c2c(C)cc(NC(=O)c3ccc4c(c3)nc(CN3CC=C(c5cccc(OCc6ccc(Cl)cn6)n5)CC3)n4C[C@@H]3CCO3)cc12 [Compound 165]
9,9.17,Cc1cc(NC(=O)c2ccc3c(c2)nc(CN2CC=C(c4cccc(OCc5ccc(Cl)cc5F)n4)CC2)n3C[C@@H]2CCO2)cc2nn[nH]c12 [Compound 167]
10,7.98,Cc1n[nH]c2cnc(NC(=O)c3ccc4c(c3)nc(CN3CC=C(c5cccc(OCc6ccc(Cl)cc6F)n5)CC3)n4C[C@@H]3CCO3)nc12 [Compound 168]
11,8.99,Cc1cc(NC(=O)c2ccc3c(c2)nc(CN2CC=C(c4cccc(OCc5ccc(Cl)cc5F)n4)CC2)n3C[C@@H]2CCO2)cc2c(C(F)F)n[nH]c12 [Compound 169]
12,8.45,CCc1cc(NC(=O)c2ccc3c(c2)nc(CN2CC=C(c4cccc(OCc5ccc(Cl)cc5F)n4)CC2)n3C[C@@H]2CCO2)cc2c(C)n[nH]c12 [Compound 170]
13,8.02,Cc1n[nH]c2c(C3CC3)cc(NC(=O)c3ccc4c(c3)nc(CN3CC=C(c5cccc(OCc6ccc(Cl)cc6F)n5)CC3)n4C[C@@H]3CCO3)cc12 [Compound 171]
14,8.79,Cc1n[nH]c2c(C(F)F)cc(NC(=O)c3ccc4c(c3)nc(CN3CC=C(c5cccc(OCc6ccc(Cl)cc6F)n5)CC3)n4C[C@@H]3CCO3)cc12 [Compound 172]
15,7.50,Cc1cc(NC(=O)c2ccc3c(c2)nc(CN2CC=C(c4cccc(OCc5ccc(Cl)cc5F)n4)CC2)n3C[C@@H]2CCO2)c(C)c2c(C)n[nH]c12 [Compound 173]
16,8.67,Cc1n[nH]c2cc(F)c(NC(=O)c3ccc4c(c3)nc(CN3CC=C(c5cccc(OCc6ccc(Cl)cc6F)n5)CC3)n4C[C@@H]3CCO3)cc12 [Compound 174]
17,8.91,Cc1cc(NC(=O)c2ccc3c(c2)nc(CN2CC=C(c4cccc(OCc5ccc(Cl)cc5F)n4)CC2)n3C[C@@H]2CCO2)c(F)c2c(C)n[nH]c12 [Compound 175]
18,9.06,Cc1n[nH]c2ccc(NC(=O)c3ccc4c(c3)nc(CN3CC=C(c5cccc(OCc6ccc(Cl)cc6F)n5)CC3)n4C[C@@H]3CCO3)c(F)c12 [Compound 176]
19,9.64,Cc1n[nH]c2c(F)cc(NC(=O)c3ccc4c(c3)nc(CN3CC=C(c5cccc(OCc6ccc(C#N)cc6F)n5)CC3)n4C[C@@H]3CCO3)cc12 [Compound 177]
20,9.12,N#Cc1ccc(COc2cccc(C3=CCN(Cc4nc5cc(C(=O)Nc6cc(F)c7c(c6)C6(CC6)C(=O)N7)ccc5n4C[C@@H]4CCO4)CC3)n2)c(F)c1 [Compound 179]
21,8.97,N#Cc1ccc(COc2cccc(C3=CCN(Cc4nc5cc(C(=O)Nc6cc(F)c7[nH]ncc7c6)ccc5n4C[C@@H]4CCO4)CC3)n2)c(F)c1 [Compound 180]
22,9.68,Cc1n[nH]c2c(C)cc(NC(=O)c3ccc4c(c3)nc(CN3CC=C(c5cccc(OCc6ccc(C#N)cc6F)n5)CC3)n4C[C@@H]3CCO3)cc12 [Compound 181]
23,9.49,N#Cc1ccc(COc2cccc(C3=CCN(Cc4nc5cc(C(=O)Nc6ccc7c(c6)C6(CC6)C(=O)N7)ccc5n4C[C@@H]4CCO4)CC3)n2)c(F)c1 [Compound 182]
24,9.12,Cc1cc(NC(=O)c2ccc3c(c2)nc(CN2CC=C(c4cccc(OCc5ccc(C#N)cc5F)n4)CC2)n3C[C@@H]2CCO2)cc2c(C(F)F)n[nH]c12 [Compound 183]
25,8.80,N#Cc1ccc(COc2cccc(C3=CCN(Cc4nc5cc(C(=O)Nc6ccc7[nH]nc(C(F)(F)F)c7c6)ccc5n4C[C@@H]4CCO4)CC3)n2)c(F)c1 [Compound 184]
26,8.88,Cc1cc(NC(=O)c2ccc3c(c2)nc(CN2CC=C(c4cccc(OCc5ccc(C#N)cc5F)n4)CC2)n3C[C@@H]2CCO2)cc2c(C3CC3)n[nH]c12 [Compound 185]
